Measurements reported in paper PMC7145717, “A nucleotide-dependent oligomerization of the Escherichia coli replication initiator DnaA requires residue His136 for remodeling of the chromosomal origin” (Nucleic Acids Research, 2019).
Numbering of substitutions follows the chain as printed. Names and notes keep the numbering of the source.

T1: DnaA (Escherichia coli replication initiator DnaA) (Escherichia coli, UniProt P03004, Q156N)
T1 construct: full-length, residues 1-467, 10X-histidine-tagged, recombinant from plasmid pZL411, Ni-NTA purified (SAXS samples also Sephacryl-300 gel filtration), ~52 kDa monomer
T1 sequence (P03004 1-467 Q156N): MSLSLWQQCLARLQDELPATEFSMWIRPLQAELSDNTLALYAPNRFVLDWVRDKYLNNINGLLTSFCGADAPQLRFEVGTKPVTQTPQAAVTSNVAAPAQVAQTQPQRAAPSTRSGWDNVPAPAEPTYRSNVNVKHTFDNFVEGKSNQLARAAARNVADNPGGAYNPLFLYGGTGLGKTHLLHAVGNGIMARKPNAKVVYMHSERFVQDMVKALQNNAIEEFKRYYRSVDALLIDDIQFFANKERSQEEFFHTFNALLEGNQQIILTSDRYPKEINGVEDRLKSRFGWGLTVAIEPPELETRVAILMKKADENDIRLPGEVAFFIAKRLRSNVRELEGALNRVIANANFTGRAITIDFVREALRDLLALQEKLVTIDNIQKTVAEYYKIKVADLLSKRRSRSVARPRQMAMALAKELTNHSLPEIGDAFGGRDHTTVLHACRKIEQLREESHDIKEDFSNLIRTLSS

T2: DnaA (Escherichia coli replication initiator DnaA) (Escherichia coli, UniProt P03004, F76A)
T2 construct: full-length, residues 1-467, 10X-histidine-tagged, recombinant from plasmid pZL411, Ni-NTA purified (SAXS samples also Sephacryl-300 gel filtration), ~52 kDa monomer
T2 sequence (P03004 1-467 F76A): T1 sequence (P03004 1-467 Q156N) with F76A, N156Q

T3: DnaA (Escherichia coli replication initiator DnaA) (Escherichia coli, UniProt P03004, F76Y)
T3 construct: full-length, residues 1-467, 10X-histidine-tagged, recombinant from plasmid pZL411, Ni-NTA purified (SAXS samples also Sephacryl-300 gel filtration), ~52 kDa monomer
T3 sequence (P03004 1-467 F76Y): T1 sequence (P03004 1-467 Q156N) with F76Y, N156Q

T4: DnaA (Escherichia coli replication initiator DnaA) (Escherichia coli, UniProt P03004, H136A)
T4 construct: full-length, residues 1-467, 10X-histidine-tagged, recombinant from plasmid pZL411, Ni-NTA purified (SAXS samples also Sephacryl-300 gel filtration), ~52 kDa monomer
T4 sequence (P03004 1-467 H136A): T1 sequence (P03004 1-467 Q156N) with H136A, N156Q

T5: DnaA (Escherichia coli replication initiator DnaA) (Escherichia coli, UniProt P03004, Q156E)
T5 construct: full-length, residues 1-467, 10X-histidine-tagged, recombinant from plasmid pZL411, Ni-NTA purified (SAXS samples also Sephacryl-300 gel filtration), ~52 kDa monomer
T5 sequence (P03004 1-467 Q156E): T1 sequence (P03004 1-467 Q156N) with N156E

T6: DnaA (Escherichia coli replication initiator DnaA) (Escherichia coli, UniProt P03004)
T6 construct: full-length, residues 1-467, 10X-histidine-tagged, recombinant from plasmid pZL411, Ni-NTA purified (SAXS samples also Sephacryl-300 gel filtration), ~52 kDa monomer
T6 sequence (P03004 1-467): T1 sequence (P03004 1-467 Q156N) with N156Q

T7: DnaA (Escherichia coli replication initiator DnaA) (Escherichia coli, UniProt P03004, H136Q)
T7 construct: full-length, residues 1-467, 10X-histidine-tagged, recombinant from plasmid pZL411, Ni-NTA purified (SAXS samples also Sephacryl-300 gel filtration), ~52 kDa monomer
T7 sequence (P03004 1-467 H136Q): T1 sequence (P03004 1-467 Q156N) with H136Q, N156Q

B1: DnaA(H136A) (natural protein, E. coli, UniProt P03004 1-467, looked up)
chain: T1 sequence (P03004 1-467 Q156N) with H136A, N156Q
notes: DnaA, E. coli, amino acid residues 1-467, with H136A; Made by site-directed mutagenesis on pZL411; also called ATP-DnaA(H136A)

Experiments:
[1] = target: T1, DnaA (Escherichia coli replication initiator DnaA); test: nitrocellulose filter retention assay; details: read-out: K D (ATP binding)
Excerpt: (§1) nitrocellulose filter retention assay on DnaA (Escherichia coli replication initiator DnaA)

[2] = target: T2, DnaA (Escherichia coli replication initiator DnaA); test: nitrocellulose filter retention assay; details: read-out: K D (ATP binding)
Excerpt: as §1

[3] = target: T3, DnaA (Escherichia coli replication initiator DnaA); test: nitrocellulose filter retention assay; details: read-out: K D (ATP binding)
Excerpt: as §1

[4] = target: T4, DnaA (Escherichia coli replication initiator DnaA); test: nitrocellulose filter retention assay; details: read-out: K D (ATP binding)
Excerpt: as §1

[5] = target: T5, DnaA (Escherichia coli replication initiator DnaA); test: nitrocellulose filter retention assay; details: read-out: K D (ATP binding)
Excerpt: as §1

[6] = target: T6, DnaA (Escherichia coli replication initiator DnaA); test: nitrocellulose filter retention assay; details: read-out: K D (ATP binding)
Excerpt: as §1

[7] = target: T7, DnaA (Escherichia coli replication initiator DnaA); test: nitrocellulose filter retention assay; details: read-out: K D (ATP binding)
Excerpt: as §1

[8] = target: the molecule itself; test: cross-linking; amine-specific cross-linker DTSSP; apo or with 0.5 mM ADP, AMP-PNP or ATP; SDS-PAGE and western blot with anti-DnaA antibody

Row | Molecule | Kd [1] [nM] | Kd [2] [nM] | Kd [3] [nM] | Kd [4] [nM] | Kd [5] [nM] | Kd [6] [nM] | Kd [7] [nM] | binding result [8]
1 | Nc1ncnc2c1ncn2[C@@H]1O[C@H](COP(=O)(O)OP(=O)(O)OP(=O)(O)O)[C@@H](O)[C@H]1O [ATP] | 100 ± 20 | 120 ± 30 | 140 ± 30 | 140 ± 40 | 100 ± 20 | 110 ± 30 | 100 ± 20 | 
2 | B1 |  |  |  |  |  |  |  | binds
